We go through ten molecules from patent US20040248971A1, “Use of vitamin e succinate and antiandrogen combination” (priority 2001, published 2004).

Experiment [1] concerns AR. As to the kind of experiment: In vivo AR radioligand competition binding assay in LNCaP cells. More on the design: species or system human. The note with it: 2.5 nM [3H]R1881, 100-fold excess unlabeled R1881 (250 nM). As to the method: [^3H]R1881-binding without competition was set at 100%. […] (B) AR N-C dimerization.
LNCaP cells were plated into 60-mm dishes and grown to 60% confluence. […] After 1-h incubation, cells were harvested by lysis buffer (PBS with 1% Triton X-100). Equal protein amounts of cell extract were subjected to binding assays, which were terminated by adding hydroxylapatite. Each sample was filtered by using a sampling manifold (Millipore) and unbound ligand was removed by washing. Filter papers that contained bound ligand were transferred to counting vials containing 5 ml of liquid scintillation fluid and counted with a multipurpose scintillation counter (Beckman).

The subject of the next experiment is PSA. As to the kind of experiment: PSA expression in LNCaP cells (Western and Northern blotting). It is filed as cell-based, human. As to conditions: LNCaP; for PSA expression: Western blotting (FIG. 9). As for the experimental part:
(§1) Cells without treatment were harvested on day 2 and used as a control. Western blotting was used to detect the expression of PSA protein. Actin served as an internal control. […] Cells were harvested on days 1, 2, and 3 for Northern blotting analysis. β-Actin served as an internal control. […] The transfections were performed at least three times and presented as an average±SD. […] LNCaP cells without any treatment harvested on the first day (day 0) is used as a control. Western blotting was applied to detect the expression of PSA protein level. […] Cells were harvested on day 1, 2, and 3 for Northern blotting analyses. (G). […] The transfections were performed three times and presented as an average: bar-denotes standard deviation.
Protein harvested from cells without treatment on the first day (day 0) was used as a control. Fifty micrograms of whole-cell lysate was subjected to Western blotting assay.
LNCaP cells were cultured in RPMI medium with 8% FBS, and treated with […] of the indicated reagent. Proteins harvested from cells without treatment on day 2 were used as a control. 60 micrograms of whole cell lysate was subjected to Western blotting assay.
Total protein lysate from LNCaP cells was prepared as previously described (Yeh, PNAS). After separation of 50 μg protein by SDS-PAGE gel, proteins were transferred by electrophoresis to Immobilon-P membrane (Millipore Corp., Bedford, Mass.) and incubated in PBS with 0.1% Tween-20 and 10% FCS for 2 h. Primary antibodies specific for human AR, PSA, and β-actin were diluted in PBS with 0.1% Tween-20 (PBST) as described in manual and incubated at room temperature for 2 h. Membranes were washed in PBST (three times, 10 min each time) and incubated with AP-conjugated secondary antibody which was diluted as described in manual in PBST and incubated for 2 h in room temperature, washed in PBST (three times, 10 min each time). The proteins were detected by AP western blotting reagents.
Cells were harvest after 1, 2, and 3 days treatment. Total RNA was extracted using Trizol, according to manufacturer's directions (GIBCO). Total RNA (20 μg) was electrophoresed though formaldehyde-agarose gels and transferred to Hybond-N+ membrane (Amersham Pharmacia Biotech) according the company's protocol (17).
For Northern blots, the fragments of the human PSA, AR, and β-actin cDNA were labeled with [^32P]-dCTP using the random primed DNA labeling kit from Amersham Pharmacia Biotech. Membranes were prehybridized, hybridized, and washed using Rapid-hyb system from Amersham Pharmacia Biotech, according to the manufacturer's user manual. The mRNA was detected using phosphorimager screen system (Molecular Dynamics).

The test system of experiment [2] is AR. As to the kind of experiment: AR expression in LNCaP cells (Western and Northern blotting). As to conditions: for AR expression: 8% FBS, Western blotting (FIG. 9); for AR expression at the protein level: Western blotting, 10 μM VES, Suc or SM, 10 nM Vit D. It is filed as cell-based, human. As for the experimental part:
Cells were harvested at different time points. Twenty-five micrograms of RNA and 50 μg of protein collected from the same culture dish were applied for Northern blotting and Western blotting assays, respectively (45). The amount of actin is shown as a control. […] LNCaP cells without treatment were harvested on day 2 and used as a control. Whole-cell lysates were subjected to Western blotting assay using primary antibodies for AR, VDR, PPAR, or RXR. […] Protein harvested from cells without treatment on the first day (day 0) was used as a control. Fifty micrograms of whole-cell lysate was subjected to Western blotting assay. […] LNCaP cells were cultured in RPMI medium with 8% FBS, and treated with […] of the indicated reagent. Proteins harvested from cells without treatment on day 2 were used as a control. 60 micrograms of whole cell lysate was subjected to Western blotting assay. Total protein lysate from LNCaP cells was prepared as previously described (Yeh, PNAS). […] Membranes were washed in PBST (three times, 10 min each time) and incubated with AP-conjugated secondary antibody which was diluted as described in manual in PBST and incubated for 2 h in room temperature, washed in PBST (three times, 10 min each time). The proteins were detected by AP western blotting reagents. […] Cells were harvest after 1, 2, and 3 days treatment. Total RNA was extracted using Trizol, according to manufacturer's directions (GIBCO). Total RNA (20 μg) was electrophoresed though formaldehyde-agarose gels and transferred to Hybond-N+ membrane (Amersham Pharmacia Biotech) according the company's protocol (17). For Northern blots, the fragments of the human PSA, AR, and β-actin cDNA were labeled with [^32P]-dCTP using the random primed DNA labeling kit from Amersham Pharmacia Biotech. Membranes were prehybridized, hybridized, and washed using Rapid-hyb system from Amersham Pharmacia Biotech, according to the manufacturer's user manual. The mRNA was detected using phosphorimager screen system (Molecular Dynamics).

The subject of a further experiment is LNCaP cells. As to the kind of experiment: MTT assay / cell counting, LNCaP cell growth. The class given is cell-based, human. As to the method: Cells were harvested at the time indicated. […] Cells were harvested at the time indicated. […] Cell growth was determined by the MTT assay. The control group was cultured in 0.1% (vol/vol) ethanol and was set at 100%.
All the cell growth was determined by cell counting and MTT assay. Control group contained 0.1% (v/v) ethanol and was set at 100%.
LNCaP cells were cultured in RPMI medium with 8% FBS, and treated with 10^−5M of the indicated reagent Cells were harvested at the time indicated in the figure. All the cell growth was determined by cell counting and MTT assay. Control group contained 0.1% (v/v) ethanol and was set at 100%.
The human prostate cancer cell line LNCaP was obtained from the American Type Culture collection (Rockville, Md.). Fibroblast cell was primarily cultured from normal prostate tissue. LNCaP cells were propagated in 12-well, 60 mm or 100 mm culture dishes at the desired density in RPMI 1640 medium (Gibco, Rockville, Md.) supplemented with 8% fetal bovine serum (FBS) (Gibco, Rockville, Md.) at 37° C. and 5% CO2 until reaching 60%-80% confluence or were grown in phenol red-free RPMI medium 1640 with 8% fetal bovine serum (FBS). The fibroblast cells were maintained in DMEM (Gibco, Rockville, Md.) with 10% FBS. […] During the treatment, the medium was changed every 4 days and fresh compounds were added every 2 days.
The MTT assay is a quantitative colorimetric assay for mammalian cell survival and proliferation (13, 16). The 5×10^4 LNCaP cells were seeded in 12-well plates. After 36-48 h, the medium was changed to phenol red free RPMI1640 with 8 % FBS or CS-FBS for another 2, 4, and 6 days, with different compound treatment with or without ligand. At the end of each time period treatment, 200 μl of MTT (5 mg/ml; Sigma) was added into the each well with 1 ml of medium for 3 h at 37° C. After incubation, 2 ml of 0.04 M HCl in isopropyl alcohol was added into each well. After 30-min shaking at room temperature and several pippettings, the absorbency was read at a test wavelength of 595 nm. The 2×10^5 fibroblast cells were seeded in each well of 6-well dishes. […] For cell counting, cells were trypsinized, neutralized by medium, and counted on hemocytometers. Fibroblast cells were seeded at 2×10^5 per well in 6-well plates, and cell growth assays were conducted by using the same MTT assay used for LNCaP cells.

For another experiment, the system named is PSA6.0-Luc. As to the kind of experiment: PSA promoter luciferase reporter (PSA6.0-Luc) in LNCaP cells. The class given is cell-based, human. The note with it: 5 nM DHT, 10 μM VES or Suc. As for the experimental part: as §1
In another experiment the target is human TAP (hTAP) (Homo sapiens, UniProt O76054). The note with it: recombinant hTAP; read-out: Kd of binding to recombinant hTAP; cited from earlier work.
Where [3] appears, read: RPMI 8% FBS, 10^−5M reagent, cell counting and MTT (FIGS. 8 and 10).

human TAP (hTAP), sequence (O76054 whole entry): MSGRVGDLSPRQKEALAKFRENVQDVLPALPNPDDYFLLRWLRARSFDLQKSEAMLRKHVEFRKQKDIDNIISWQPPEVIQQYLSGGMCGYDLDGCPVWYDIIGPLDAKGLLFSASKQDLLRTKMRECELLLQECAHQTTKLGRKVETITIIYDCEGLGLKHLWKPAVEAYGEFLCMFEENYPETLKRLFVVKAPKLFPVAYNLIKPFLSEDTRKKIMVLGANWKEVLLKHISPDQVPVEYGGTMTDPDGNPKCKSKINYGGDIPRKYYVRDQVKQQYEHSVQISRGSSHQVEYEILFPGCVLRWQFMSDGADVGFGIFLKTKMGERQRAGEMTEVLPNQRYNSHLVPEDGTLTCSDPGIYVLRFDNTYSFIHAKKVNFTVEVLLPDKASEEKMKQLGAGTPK

As to `C[C@]1(O)CC[C@H]2[C@@H]3CCC4=CC(=O)CCC4=C3C=C[C@@]21C` [R1881, reference compound], in the experiment with AR [1], the “specific binding of [3H]R1881 competed” value turned out to be 95%.

On to `CC(=O)Oc1c(C)c(C)c2c(c1C)CCC(C)(CCC[C@H](C)CCC[C@H](C)CCCC(C)C)O2` (stereo partly drawn) [VEA, α-Vit E acetate], for which the PSA expression result in the experiment with PSA (8% FBS) is “do not efficiently inhibit”. For the same molecule, in the experiment with AR [2], the AR expression entry was “do not efficiently inhibit”.

Turning to `C[C@]12CCC(=O)C[C@@H]1CC[C@@H]1[C@@H]2CC[C@]2(C)[C@@H](O)CC[C@@H]12` [DHT, 5-dihydrotestosterone], in the experiment on LNCaP cells (8% CS-FBS, DHT 5 nM, MTT), the LNCaP cell growth entry is on record as “can stimulate”. Besides, the “PSA expression at mRNA and protein levels” value with PSA (5 nM DHT, 10 μM VES, Western and Northern blotting) is on record as “induced”. The “DHT induced PSA6.0-Luc activity” value in the experiment with PSA6.0-Luc was “induced”.

Consider `C=C1/C(=C\C=C2/CCC[C@]3(C)[C@@H]([C@H](C)CCCC(C)(C)O)CC[C@@H]23)C[C@@H](O)C[C@@H]1O` [Vit D, 1α, 25-dihydroxyvitamin D3], for which the LNCaP cell growth result with LNCaP cells (setting [3]) is “can inhibit”. Besides, the “AR expression at the protein level” value in the experiment with AR [2] is recorded as “not”.

As to `Cc1c(C)c2c(c(C)c1O)CCC(C)(CCCC(C)CCCC(C)CCCC(C)C)O2` (stereo not shown) [vitamin E], at human TAP (hTAP), the Kd was 460 nM.

Consider `CC(C)(O)C(=O)Nc1ccc([N+](=O)[O-])c(C(F)(F)F)c1` [HF, hydroxyflutamide], for which, in the experiment with LNCaP cells (8% CS-FBS with 5 nM DHT, HF 5 μM, VES 10 μM, MTT), the “DHT-mediated LNCaP cell growth” value is “fails to repress”. Further, the LNCaP cell growth result in the experiment on LNCaP cells (8% FBS without DHT, HF 5 μM, VES 10 μM, MTT) is “induces LNCaP cell growth at day 2, with the induction gradually diminishing after day 4”.

For `Cc1c(C)c2c(c(C)c1O)CC[C@@](C)(CCC[C@H](C)CCC[C@H](C)CCCC(C)C)O2` [α-Vit E, alpha—tocopherol], the LNCaP cell growth entry in the experiment on LNCaP cells (setting [3]) is on record as “can inhibit”. Further, in the experiment on PSA (8% FBS), the PSA expression result was “can also inhibit”. The AR expression entry with AR [2] is listed as “can also inhibit”.

On to `C[Se]CC[C@H](N)C(=O)O` [SM, selenomethionine], for which the LNCaP cell growth result in the experiment with LNCaP cells (10 μM SM, after 4 days treatment) is listed as “growth inhibition”. In the experiment with PSA (8% FBS, 10 μM SM, Western blot), the “PSA expression (protein)” value was “no effect”. Further, the “AR expression at the protein level” value in the experiment with AR [2] is on record as “no effect”.

For `O=C(O)CCC(=O)O` [Suc, succinic acid], the “DHT induced PSA6.0-Luc activity” value with PSA6.0-Luc is given as “not”. Further, in the experiment on AR [2], the “AR expression at the protein level” value is listed as “not”.

With `Cc1c(O)cc2c(c1C)O[C@](C)(CCC[C@H](C)CCC[C@H](C)CCCC(C)C)CC2` [γ-Vit E, (+)-γ-tocopherol], the LNCaP cell growth entry in the experiment with LNCaP cells (setting [3]) is “can inhibit”. For the same molecule, the PSA expression result in the experiment with PSA (8% FBS) is “do not efficiently inhibit”. Moreover, in the experiment with AR [2], the AR expression entry was “do not efficiently inhibit”.
